Tested on: Balb/c female mice
Assay: Transepidermal water loss in pups of mothers receiving SCFA in drinking water during pregnancy (TEWLmeter method)
Format: in vivo
Conditions: 200 mM in drinking water of pregnant mothers from day 1 of pregnancy; TEWL at day 3 after birth; vs regular drinking water; FIG. 1
Description: • Breeding pairs were set up with 1 Balb/c male and 2 Balb/c female mice. • From day 1 of pregnancy, female mice received 200 mM sodium acetate or sodium propionate ad libitum in drinking water. These doses correspond to 0.05-0.1 and 0.05-0.08 g/mouse/day, respectively. Control female mice received regular drinking water. • Cages were monitored from day 18-24 for litters. Regular drinking water was recommenced in the mothers as soon as pups were born. 6-7 pups per group were included in the experiment. • Transepidermal water loss was measured at day 3 after birth (baseline TEWL) by the TEWLmeter method and given in g·h^−1·m^−2.

Row | Structure (SMILES) | transepidermal water loss in offspring
1 | CC(=O)[O-].[Na+] [acetate, sodium acetate] | significantly decreased
2 | CCC(=O)[O-].[Na+] [propionate, sodium propionate] | significantly decreased

Source: patent US10751308B2, “Composition for preventing or reducing transepidermal water loss” (NESTEC S.A., priority 2016, dated 2020)
